Tested on: C. albicans
Assay: Cell viability by membrane integrity, propidium iodide (PI) flow cytometry
Assay type: cell-based
Protocol: • Figure 1. Checkerboard assay showing the potentiation of the antifungal caspofungin by the compound MDN-0018. In this assay, dose response curves of the compound MDN-0018 (8 to 0.015 µg/mL) are performed from left to right and dose response curves of caspofungin (0.24 to 0.018 µg/mL) are performed from top to bottom. Other known antifungal compounds (echinocandins, azoles and polyenes) were tested, obtaining a similar checkboard. […] Determination of the potentiation of caspofungin activity by the compound MDN-0018 against A. fumigatus. Study of the optimum concentration of the compounds MDN-0018 and caspofungin where maximum enhancement of caspofungin is reached is shown in Figure 2.1. In addition, the graphic representation of curves, in duplicate, of the caspofungin potentiated by the compound MDN-0018 is shown in Figure 2.1. Each curve represents a curve of caspofungin from 0.24 to 0.018 µg/mL ([…]) with set concentrations of the MDN-0018 compound from 8 to 0.015 µg/mL (8.86 to 0.017 µM). • Figure 3. Flow cytometry experiments to determine cellular viability by changes in membrane permeability using propidium iodide (PI) as probe. […]
Cell viability was determined by changes in membrane permeability, live cells with intact membranes are distinguished by their ability to exclude dyes that easily penetrate dead or damaged cells. […]

CC[C@H](C)C[C@H](C)CCCCCCCCC(=O)N[C@H]1C[C@@H](O)[C@@H](NCCN)NC(=O)[C@@H]2[C@@H](O)CCN2C(=O)[C@H]([C@H](O)CCN)NC(=O)[C@H]([C@H](O)[C@@H](O)c2ccc(O)cc2)NC(=O)[C@@H]2C[C@@H](O)CN2C(=O)[C@H]([C@@H](C)O)NC1=O [caspofungin]
cellular viability by changes in membrane permeability (PI), flow cytometry profile (1 µg/mL of caspofungin): damaged population | cellular viability by changes in membrane permeability (PI), flow cytometry profile (sublethal dose of caspofungin (0.015 µg/mL)): same profile as the non treated cells
